As usually defined, the IC50 is the concentration at which inhibition is half-maximal.

In test [1] the target is mTOR/GbL/Raptor (mTORC1) (Homo sapiens, UniProt P42345). The experiment in a line: mTOR/GbL/Raptor (mTORC1) ELISA assay. To be noted: phosphorylation of 4E-BP1; 0.2 nM mTORC1, 10 μM ATP; read-out: IC50 in this assay (mTORC1 ELISA). In kind it is biochemical. The method, boiled down:
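ELISA read-out: phospho-4E-BP1 captured on Ni-chelate plates and detected with anti-phospho antibody plus HRP-anti-IgG luminescence. The kinase step ran 120 min at ambient temperature with 0.2 nM human mTORC1, 10 µM ATP, 50 nM His-4E-BP1, 10 mM MnCl2, pH 7.2 HEPES.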
In general terms: An ELISA detects its analyte on a solid surface through an enzyme-linked reagent.

Test [2] addresses PI3Kα (Homo sapiens, UniProt P42336). The experiment in a line: PI3K biochemical assay (luciferase-luciferin ATP consumption). To be noted: 1.5 nM enzyme, 1 μM ATP, 10 μM PIP2; read-out: IC50 for PI3Kα in this assay. The procedure: PI3Kα activity is measured as the percent of ATP consumed following the kinase reaction using luciferase-luciferin-coupled chemiluminescence. Reactions were conducted in 384-well white, medium binding microtiter plates (Greiner). Kinase reactions were initiated by combining test compounds, ATP, substrate (PIP2), and kinase in a 20 μL volume in a buffer solution. The standard PI3Kalpha assay buffer is composed 50 mM Tris, pH 7.5, 1 mM EGTA, 10 mM MgCl2, 1 mM DTT and 0.03% CHAPS. The standard assay concentrations for enzyme, ATP, and substrate are 1.5 nM, 1 μM, and 10 μM, respectively. The reaction mixture was incubated at ambient temperature for approximately 2 h. Following the kinase reaction, a 10 μL aliquot of luciferase-luciferin mix (Promega Kinase-Glo) was added and the chemiluminescence signal measured using a Victor2 plate reader (Perkin Elmer). Total ATP consumption was limited to 40-60% and IC50 values of control compounds correlate well with literature references. Substituting PI3Kα with PI3Kβ, PI3Kγ, or PI3Kδ, the inhibitory activity of the compounds for the other isoforms of I3K were measured.

Some results are limits rather than exact numbers.

PI3Kα, sequence (P42336 whole entry, species assumed): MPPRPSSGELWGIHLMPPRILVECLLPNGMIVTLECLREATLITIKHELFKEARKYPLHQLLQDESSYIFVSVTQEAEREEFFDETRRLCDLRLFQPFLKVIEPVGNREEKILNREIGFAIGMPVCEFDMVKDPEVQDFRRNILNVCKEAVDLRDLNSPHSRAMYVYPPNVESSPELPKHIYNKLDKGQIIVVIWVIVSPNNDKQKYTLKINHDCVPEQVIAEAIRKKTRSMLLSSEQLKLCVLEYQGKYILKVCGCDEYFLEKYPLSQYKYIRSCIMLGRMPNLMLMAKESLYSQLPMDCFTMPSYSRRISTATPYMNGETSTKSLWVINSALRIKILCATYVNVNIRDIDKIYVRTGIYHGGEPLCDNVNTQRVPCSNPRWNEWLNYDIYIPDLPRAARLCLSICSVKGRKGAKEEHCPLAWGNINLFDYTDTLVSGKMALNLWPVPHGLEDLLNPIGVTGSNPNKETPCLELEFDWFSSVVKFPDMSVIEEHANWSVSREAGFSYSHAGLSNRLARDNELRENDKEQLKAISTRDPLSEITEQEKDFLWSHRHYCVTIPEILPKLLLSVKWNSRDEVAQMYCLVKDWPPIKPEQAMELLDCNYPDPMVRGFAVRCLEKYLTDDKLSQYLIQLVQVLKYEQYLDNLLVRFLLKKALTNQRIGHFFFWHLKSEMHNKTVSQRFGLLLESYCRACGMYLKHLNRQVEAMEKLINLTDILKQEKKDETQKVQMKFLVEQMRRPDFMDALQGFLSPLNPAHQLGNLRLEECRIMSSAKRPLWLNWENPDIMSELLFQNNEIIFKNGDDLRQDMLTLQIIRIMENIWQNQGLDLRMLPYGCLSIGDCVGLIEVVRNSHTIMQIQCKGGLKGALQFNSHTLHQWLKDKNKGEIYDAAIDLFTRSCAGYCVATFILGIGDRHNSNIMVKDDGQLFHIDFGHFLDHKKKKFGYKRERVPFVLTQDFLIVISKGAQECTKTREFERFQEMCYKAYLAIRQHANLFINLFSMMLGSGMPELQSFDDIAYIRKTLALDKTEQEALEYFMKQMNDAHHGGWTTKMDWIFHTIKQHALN
PI3Kα, sequence (P27986 whole entry partner, species assumed): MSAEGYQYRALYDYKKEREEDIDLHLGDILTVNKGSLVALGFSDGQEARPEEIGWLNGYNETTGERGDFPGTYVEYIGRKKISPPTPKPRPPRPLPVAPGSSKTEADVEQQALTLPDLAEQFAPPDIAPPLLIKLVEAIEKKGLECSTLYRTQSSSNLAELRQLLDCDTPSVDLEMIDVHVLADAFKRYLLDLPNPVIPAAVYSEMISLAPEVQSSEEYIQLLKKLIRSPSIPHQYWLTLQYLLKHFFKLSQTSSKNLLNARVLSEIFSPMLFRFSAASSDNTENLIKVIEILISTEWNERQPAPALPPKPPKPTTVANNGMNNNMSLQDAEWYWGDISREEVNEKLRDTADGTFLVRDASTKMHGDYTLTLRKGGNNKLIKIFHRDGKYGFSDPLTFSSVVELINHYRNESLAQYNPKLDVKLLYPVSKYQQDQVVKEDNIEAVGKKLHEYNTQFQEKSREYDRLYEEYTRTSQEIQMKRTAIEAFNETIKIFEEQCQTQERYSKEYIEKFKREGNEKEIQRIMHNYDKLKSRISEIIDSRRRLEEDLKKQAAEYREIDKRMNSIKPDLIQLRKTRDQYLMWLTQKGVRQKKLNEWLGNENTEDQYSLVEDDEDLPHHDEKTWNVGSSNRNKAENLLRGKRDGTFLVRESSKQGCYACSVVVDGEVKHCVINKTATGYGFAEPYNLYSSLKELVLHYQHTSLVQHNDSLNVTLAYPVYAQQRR

On to `Cc1ncc(S(=O)(=O)N2CCOCC2)c(N2CCOc3ccc(-c4cnc5nc(C)[nH]c5c4)cc3C2)n1` [Example 561, 7-(2-methyl-1H-imidazo[4,5-b]pyridin-6-yl)-4-[2-methyl-5-(morpholin-4-ylsulfonyl)pyrimidin-4-yl]-2,3,4,5-tetrahydro-1,4-benzoxazepine], for which the values for the IC50 in test [1] and in test [2] were 250 to 1000 nM and 1000 to 2000 nM, respectively.
With `Cc1ncnc(N2CCOc3ccc(-c4ccc(C(=O)N[C@H]5CCNC5)cc4)cc3C2)c1Cc1ccc(F)cc1` [Example 173, 4-(4-{5-[(4-fluorophenyl)methyl]-6-methylpyrimidin-4-yl}-2,3,4,5-tetrahydro-1,4-benzoxazepin-7-yl)-N-[(3S)-pyrrolidin-3-yl]benzamide], the IC50 was 250 to 1000 nM in test [1] and no less than 2000 nM in test [2].
The matching figures for `Cc1nc2ccc(-c3ccc4c(c3)CN(c3ncnc5[nH]ncc35)CCO4)cc2[nH]1` [Example 52, 7-(2-methyl-1H-benzimidazol-6-yl)-4-(1H-pyrazolo[3,4-d]pyrimidin-4-yl)-2,3,4,5-tetrahydro-1,4-benzoxazepine]: 1000 to 2000 nM and no less than 2000 nM.
The matching figures for `COC(=O)Nc1cc(-c2ccc3c(c2)CN(c2ncnc4c2CC(C)(C)CC4)CCO3)cnc1Cl` [Example 581, methyl {2-chloro-5-[4-(6,6-dimethyl-5,6,7,8-tetrahydroquinazolin-4-yl)-2,3,4,5-tetrahydro-1,4-benzoxazepin-7-yl]pyridin-3-yl}carbamate]: 1000 to 2000 nM and no less than 2000 nM.
Consider `c1ccc2c(N3CCOc4ccc(-c5ccc6nc(C7CCCC7)[nH]c6c5)cc4C3)ccnc2c1` [Example 198, 7-(2-cyclopentyl-1H-benzimidazol-6-yl)-4-quinolin-4-yl-2,3,4,5-tetrahydro-1,4-benzoxazepine], for which the half-inhibitory concentration (IC50) in test [1] and in test [2] was no less than 2000 nM in each case.
`COc1ccc(-c2ccc3c(c2)CN(c2nc(CN(C)C)nc4c2CC(C)(C)CC4)CCO3)cc1` [Example 329, 1-(6,6-dimethyl-4-{7-[4-(methyloxy)phenyl]-2,3-dihydro-1,4-benzoxazepin-4(5H)-yl}-5,6,7,8-tetrahydroquinazolin-2-yl)-N,N-dimethylmethanamine]: the half-maximal inhibitory concentration (IC50) in test [1] was no less than 2000 nM; in test [2], 1000 to 2000 nM.
As to `CCn1ccc2cc(-c3ccc4c(c3)CN(c3ccnc5ccccc35)CCO4)cnc21` [Example 223, 7-(1-ethyl-1H-pyrrolo[2,3-b]pyridin-5-yl)-4-quinolin-4-yl-2,3,4,5-tetrahydro-1,4-benzoxazepine], the IC50 in test [1] and in test [2] was no less than 2000 nM throughout.
Consider `Cc1nccc(N2CCOc3ccc(-c4cnc5nc(C)[nH]c5c4)cc3C2)n1` [Example 85, 7-(2-methyl-1H-imidazo[4,5-b]pyridin-6-yl)-4-(2-methylpyrimidin-4-yl)-2,3,4,5-tetrahydro-1,4-benzoxazepine], for which the IC50 lay in the range of 50 to 250 nM in test [1] and 1000 to 2000 nM in test [2].
Take `Cc1ccc(N2Cc3ncnc(N4CCOc5ccc(-c6ccc7nc(C)[nH]c7c6)cc5C4)c3C2)cc1` [Example 88, 7-(2-methyl-1H-benzimidazol-6-yl)-4-[6-(4-methylphenyl)-6,7-dihydro-5H-pyrrolo[3,4-d]pyrimidin-4-yl]-2,3,4,5-tetrahydro-1,4-benzoxazepine]: the IC50 in test [1] was 1000 to 2000 nM; in test [2], no less than 2000 nM.
`Cc1nc2cc(-c3ccc4c(c3)CN(c3ccnc5ccccc35)CCO4)ccc2s1` [Example 128, 7-(2-methyl-1,3-benzothiazol-5-yl)-4-quinolin-4-yl-2,3,4,5-tetrahydro-1,4-benzoxazepine]: the half-maximal inhibitory concentration (IC50) in test [1] and in test [2] was no less than 2000 nM throughout.
Regarding `Cc1nc2ccc(-c3ccc4c(c3)CN(c3ccnc(N)c3)CCO4)cc2[nH]1` [Example 262, 4-[7-(2-methyl-1H-benzimidazol-6-yl)-2,3-dihydro-1,4-benzoxazepin-4(5H)-yl]pyridin-2-amine], the half-inhibitory concentration (IC50) in test [1] and in test [2] was no less than 2000 nM throughout.
`c1ccc2ncc(-c3ccc4c(c3)CN(c3ccnc5ccccc35)CCO4)cc2c1` [Example 205, 7-quinolin-3-yl-4-quinolin-4-yl-2,3,4,5-tetrahydro-1,4-benzoxazepine]: the IC50 in test [1] and in test [2] was 1000 to 2000 nM in each case.
Take `Cc1nc2ncc(-c3ccc4c(c3)CN(c3ncnc5c3C(C(F)(F)F)CCC5)CCO4)cc2[nH]1` (centres unmarked) [Example 562, 7-(2-methyl-1H-imidazo[4,5-b]pyridin-6-yl)-4-[5-(trifluoromethyl)-5,6,7,8-tetrahydroquinazolin-4-yl]-2,3,4,5-tetrahydro-1,4-benzoxazepine]: the IC50 in test [1] is 250 to 1000 nM; in test [2] it was 1000 to 2000 nM.
The like results for `CCNc1nc2ccc(-c3ccc4c(c3)CN(c3nc(C)nc5cc(OCC)ccc35)CCO4)cc2[nH]1` [Example 288, N-ethyl-6-{4-[7-(ethyloxy)-2-methylquinazolin-4-yl]-2,3,4,5-tetrahydro-1,4-benzoxazepin-7-yl}-1H-benzimidazol-2-amine] were, in that order, no less than 2000 nM and 1000 to 2000 nM.
The like results for `Cc1nc2ccc(-c3ccc4c(c3)CN(c3ncnc(Cc5ccccc5)c3C)CCO4)cc2[nH]1` [Example 41, 7-(2-methyl-1H-benzimidazol-6-yl)-4-[5-methyl-6-(phenylmethyl)pyrimidin-4-yl]-2,3,4,5-tetrahydro-1,4-benzoxazepine] were, in that order, 250 to 1000 nM and 1000 to 2000 nM.
The like results for `CC(=O)Nc1cc(-c2ccc3c(c2)CN(c2ncnc4c2CC(C)(C)CC4)CCO3)cnc1Cl` [Example 622, N-{2-chloro-5-[4-(6,6-dimethyl-5,6,7,8-tetrahydroquinazolin-4-yl)-2,3,4,5-tetrahydro-1,4-benzoxazepin-7-yl]pyridin-3-yl}acetamide] were, in that order, 250 to 1000 nM and 1000 to 2000 nM.
For the molecule `c1ccc2sc(-c3ccc4c(c3)CN(c3ccnc5ccccc35)CCO4)cc2c1` [Example 206, 7-(1-benzothien-2-yl)-4-quinolin-4-yl-2,3,4,5-tetrahydro-1,4-benzoxazepine], the results for the concentration for half-maximal inhibition (IC50) in test [1] and in test [2] were 1000 to 2000 nM and no less than 2000 nM, respectively.
The matching figures for `C[C@H](NC(=O)OCc1ccccc1)c1nc2ncc(-c3ccc4c(c3)CN(c3ncnc5c3CC(C)(C)CC5)CCO4)cc2[nH]1` [Example 647, phenylmethyl [(1S)-1-{6-[4-(6,6-dimethyl-5,6,7,8-tetrahydroquinazolin-4-yl)-2,3,4,5-tetrahydro-1,4-benzoxazepin-7-yl]-1H-imidazo[4,5-b]pyridin-2-yl}ethyl]carbamate]: 250 to 1000 nM and no less than 2000 nM.
Regarding `Cc1nc2ccc(-c3ccc4c(c3)CN(c3nc(SCc5ccccc5)nc5c3CCC5)CCO4)cc2[nH]1` [Example 53, 7-(2-methyl-1H-benzimidazol-6-yl)-4-{2-[(phenylmethyl)thio]-6,7-dihydro-5H-cyclopenta[d]pyrimidin-4-yl}-2,3,4,5-tetrahydro-1,4-benzoxazepine], the concentration for half-maximal inhibition (IC50) in test [1] is 250 to 1000 nM; in test [2], no less than 2000 nM.
For the molecule `COc1ccc2c(N3CCOc4ccc(-c5ccc6ncsc6c5)cc4C3)nc(C)nc2c1` [Example 294, 7-(1,3-benzothiazol-6-yl)-4-[2-methyl-7-(methyloxy)quinazolin-4-yl]-2,3,4,5-tetrahydro-1,4-benzoxazepine], the IC50 is no less than 2000 nM in test [1] and 1000 to 2000 nM in test [2].
With `CSc1nc2c(c(N3CCOc4ccc(-c5ccc6nc(C)[nH]c6c5)cc4C3)n1)CC(C)C2` (centres unmarked) [Example 71, 7-(2-methyl-1H-benzimidazol-6-yl)-4-[6-methyl-2-(methylthio)-6,7-dihydro-5H-cyclopenta[d]pyrimidin-4-yl]-2,3,4,5-tetrahydro-1,4-benzoxazepine], the IC50 in test [1] and in test [2] was 1000 to 2000 nM each time.
For the molecule `Cc1nc2ccc(-c3ccc4c(c3)CN(c3ncnc5c3CSC5)CCO4)cc2[nH]1` [Example 75, 4-(5,7-dihydrothieno[3,4-d]pyrimidin-4-yl)-7-(2-methyl-1H-benzimidazol-6-yl)-2,3,4,5-tetrahydro-1,4-benzoxazepine], the IC50 in test [1] was in the range of 250 to 1000 nM; in test [2], 1000 to 2000 nM.
Take `[H]/N=c1\ncc(-c2ccc3c(c2)CN(c2ncnc4c2CC(C)(C)CC4)CCO3)cn1O` [Example 231, (2E)-5-[4-(6,6-dimethyl-5,6,7,8-tetrahydroquinazolin-4-yl)-2,3,4,5-tetrahydro-1,4-benzoxazepin-7-yl]-2-iminopyrimidin-1(2H)-ol]: the figures for the IC50 in test [1] and in test [2] were 1000 to 2000 nM and no less than 2000 nM, respectively.
On to `Cc1nc2ccc(-c3ccc4c(c3)CN(c3ncccn3)CCO4)cc2[nH]1` [Example 106, 7-(2-methyl-1H-benzimidazol-6-yl)-4-pyrimidin-2-yl-2,3,4,5-tetrahydro-1,4-benzoxazepine], for which the half-maximal inhibitory concentration (IC50) in test [1] and in test [2] was 1000 to 2000 nM throughout.
Take `Cc1nc2ccc(-c3ccc4c(c3)CN(c3ncnc(C)c3CC(C)C)CCO4)cc2[nH]1` [Example 67, 7-(2-methyl-1H-benzimidazol-6-yl)-4-[6-methyl-5-(2-methylpropyl)pyrimidin-4-yl]-2,3,4,5-tetrahydro-1,4-benzoxazepine]: the half-inhibitory concentration (IC50) lay within 250 to 1000 nM in test [1] and 1000 to 2000 nM in test [2].

These data come from US8648066B2 (Exelixis, Inc., priority 2009, dated 2014).
